Results published in PubChem BioAssay AID720667 (NMMLSC, 2013).
Calls of active or inactive are those of the source.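 Rule for the calls: active = over 50% inhibition of phosphorylation of either protein kinase C substrates or the ERK kinase; inactive = both inhibited below 50%.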

What follows are molecules tested on TALL-104 cells, ERK phosphorylation flow cytometry (assay: blockers of stimulated ERK phosphorylation in TALL-104 – TALL-104 cells, flow cytometry, CherryPick01, mechanism study for lytic granule exocytosis inhibitor project, late-stage follow-up (AID 720667)). Settings: active compounds read high; dose or concentration not given here.
For Cc1ccc(S(=O)(=O)n2ccc3c(OCCOCCNCc4ccc(F)cc4)cccc32)cc1, the inhibition was -8.2% (inactive). COC(=O)c1c(NC(=O)c2nc3ccccc3s2)sc2c1CC(C)(C)NC2(C)C was tested, and the inhibition was 11.8% (inactive). CCCCC[C@@H](C)N1C[C@@H](COCc2ccccc2)Oc2cc(N3CC[C@@H](N(C)C)C3)ccc2S1(=O)=O was tested, and the inhibition was 51.1%. For O=C(Cn1sc2ccccc2c1=O)NC12CC3CC(CC(C3)C1)C2, the inhibition was 35.6% (inactive). With CN(C)CCNC(=O)c1ccc(-c2cn3c(-c4ccc(Oc5ccccc5)cc4)cnc3cn2)cc1 the inhibition was -0.1% (inactive). COc1ccccc1CNc1nc(NCc2ccc(C(C)C)cc2)c2sccc2n1 was tested, and the inhibition was -14.8% (inactive). COc1ccc(-n2sc3ccccc3c2=O)cc1 was tested, and the inhibition was 35% (inactive). For COc1ccc(-c2cc(NC=O)c3ncc(-c4ccccc4)n3c2)cc1OC, the inhibition was -2.1% (inactive). For O=c1c2ccc(F)cc2sn1-c1ccccc1, the inhibition was 53.4%. For CCOC(=O)c1c(NC(=O)COc2ccccc2OCC)sc2c1CC(C)(C)NC2(C)C, the inhibition was 87.3%. N#Cc1c(Nc2ccccc2Cl)s[nH]c1=O showed an inhibition of 66.4%. With CCCCC[C@@H](C)N1C[C@@H](COCc2ccccc2)Oc2cc(N3CC[C@H](N(C)C)C3)ccc2S1(=O)=O the inhibition was 28% (inactive). In the case of CCN(CC)CCCNc1ccc(-c2nnc(-c3ccc(OCC(C)C)cc3)o2)cn1, the inhibition was -22.6% (inactive). COc1ccc(-c2cc(NC=O)c3ncc(-c4cccc(OC)c4)n3c2)cc1 was tested, and the inhibition was -18.8% (inactive). In the case of CC1=NOC(=O)/C1=C/c1ccc(-c2ccc(Cl)cc2)o1, the inhibition was 40.3% (inactive). CC(C)(c1ccccc1)c1ccc(OCC(O)CNC2CCN(Cc3ccccc3)CC2)cc1 (configuration not stated) was tested, and the inhibition was 36.4% (inactive). With COc1ccc(N2C(=O)CC(Sc3nnc(-c4ccccc4)o3)C2=O)cc1 (configuration not stated) the inhibition was 17.4% (inactive). In the case of O=C(Cn1sc2ccccc2c1=O)Nc1ccc(F)cc1, the inhibition was 18.2% (inactive). With CC1COCC(C)N1C1=C(Cl)C(=O)c2ccccc2C1=O (configuration not stated) the inhibition was -16.4% (inactive). O=c1c2ccccc2sn1-c1ccccc1 was tested, and the inhibition was 37.9% (inactive). For O=C(CN1C(=O)/C(=C\c2cccc(Br)c2)Oc2ccccc21)NCCCN1CCOCC1, the inhibition was 8% (inactive). Work on Cc1cc(N2CCN(c3nc(-c4ccc([N+](=O)[O-])cc4)cs3)CC2)c2ccccc2n1 yielded an inhibition of 78.9%. In the case of CCCCC[C@@H](C)N1C[C@H](COCc2ccccc2)Oc2cc(N3CC[C@@H](N(C)C)C3)ccc2S1(=O)=O, the inhibition was 37.2% (inactive). With O=CNc1cc(-c2ccsc2)cn2c(-c3ccccc3)cnc12 the inhibition was -17.6% (inactive). Molecule O=C1CC(Sc2nnnn2-c2ccccc2)C(=O)N1c1cccc(Cl)c1 (configuration not stated) has an inhibition of 67.2%. Work on CC1=C(C)CS(=O)N(S(=O)(=O)c2ccc(Cl)cc2)C1 (configuration not stated) yielded an inhibition of 83.8%. In the case of Cc1ccc(Nc2nc(NCc3ccco3)c3ccccc3n2)cc1, the inhibition was 1.1% (inactive).
